Measurements from patent US6063784A, “Heteroaryloxyethylamines, method of preparation, application as medicine and pharmaceutical compositions containing them” (Societe de Conseils de Recherches et D'Applications …, priority 1996, dated 2000).

molecular target: T1, serotonergic 5-HT1A receptors (Rattus norvegicus, UniProt P19327); assay: Affinity for the 5-HT1A receptor: inhibition of [3H]8-OH-DPAT binding to rat cerebral cortex membranes; set-up: species or system rat (male Sprague Dawley); settings: [3H]8-OH-DPAT 1 nM, 30 min at 25° C., Tris-HCl 50 mM, pH=7.4
T1 construct: from tissue; host or cells: cerebral cortex membranes of male Sprague Dawley rats
T1 sequence (P19327 1-422): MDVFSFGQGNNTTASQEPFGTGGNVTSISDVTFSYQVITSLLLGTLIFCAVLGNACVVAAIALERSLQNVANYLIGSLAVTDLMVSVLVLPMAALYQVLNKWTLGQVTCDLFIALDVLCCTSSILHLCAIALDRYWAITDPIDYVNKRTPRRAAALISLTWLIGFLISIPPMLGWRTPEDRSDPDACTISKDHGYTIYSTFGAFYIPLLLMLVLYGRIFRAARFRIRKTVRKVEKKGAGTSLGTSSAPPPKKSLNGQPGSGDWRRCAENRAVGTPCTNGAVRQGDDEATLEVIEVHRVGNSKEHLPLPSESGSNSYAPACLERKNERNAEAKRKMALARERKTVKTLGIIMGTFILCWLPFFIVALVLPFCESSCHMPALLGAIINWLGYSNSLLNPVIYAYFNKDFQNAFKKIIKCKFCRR
Method: The affinity of the compounds for serotonergic 5-HT1A receptors is determined by measuring the inhibition of [3H]8-hydroxy-2(di-n-propylamino)tetralin([3H]8-OH-DPAT) bound to the cerebral cortex of the rat, according to the method of Peroutka and his coworkers [(J. Neurochem., 47, 529 (1986)].
Cerebral cortices of male Sprague Dawley rats are homogenised in Tris-HCl 50 mM, pH=7.4 and centrifuged at 40,000 g for 10 min at 4° C. Pellets are resuspended in the same buffer and incubated for 10 min at 37° C., and the homogenised products are centrifuged again at 40,000 g for 10 min at 4° C.
Competitive inhibition tests of [3H]8-OH-DPAT binding are carried out three times with unlabelled competitors, with concentrations between 100 pM and 100 µM. Cerebral cortex membranes of rats (10 mg wet weight/ml) are incubated with [3H]8-OH-DPAT (1 nM) for 30 min at 25° C. in Tris-HCl 50 mM, pH=7.4 containing 4 mM of CaCl2, 10 µM of pargyline and 0.1% of ascorbic acid.
The bound [3H]8-OH-DPAT is separated from free [3H]8-OH-DPAT by immediate filtration by means of Whatman GF/B glass fibre filters using a Brandel cell recovery device. The filters are washed three times with the same buffer at 0-4° C. and their radioactivity is studied by means of a liquid scintillation spectrometer.
The specific binding is obtained by subtracting the binding determined in the presence of 1 M of 8-OH-DPAT from the total binding. The characteristics of the binding are analysed by iterative analysis of the non-linear regression by computer, using the Ligand program [Munson and Rodbard, Anal. Biochem., 107, 220 (1980)].

Compound | Ki [nM]
O=C(NCCCCNCCOc1cccc2cccnc12)c1ccccc1 [Compound 5, N-[4-({2-(8-quinolyloxy)ethyl}amino)butyl]benzamide] | 0.055
CC(C)(C)CC(=O)NCCCCNCCOc1ccc(Cl)c2cccnc12 [Compound 6] | 0.98
O=C(CCCCNCCOc1cccc2cccnc12)NC1CCCCC1 [Compound 11, N-cyclohexyl-5-[(2-{8-quinolyloxy}ethyl)amino]pentanamide] | 0.072
CC(C)(C)CNC(=O)CCCCNCCOc1cccc2cccnc12 [Compound 12, N-neopentyl-5-[(2-{8-quinolyloxy}ethyl)amino]pentanamide] | 0.09
CC(C)(C)CNC(=O)CCCCNCCOc1cccc2nccnc12 [Compound 13, N-neopentyl-5-[(2-{5-quinoxalyloxy}ethyl)amino]pentanamide] | 0.48

Now from value to molecule:

Ki [nM] | Compound
0.081 | CC(C)(C)C(=O)NCCCCNCCOc1cccc2cccnc12 [Compound 1, N-[4-({2-(8-quinolyloxy)ethyl}amino)butyl]tert-butanamide]
0.12 | CC(C)(C)CC(=O)NCCCCNCCOc1cccc2cccnc12 [Compound 2]
0.15 | O=C(NCCCCNCCOc1cccc2cccnc12)C1CCCCC1 [Compound 3, N-[4-({2-(8-quinolyloxy)ethyl}amino)butyl]cyclohexanamide]
0.11 | CC1(C(=O)NCCCCNCCOc2cccc3cccnc23)CCCCC1 [Compound 4]
0.35 | Cc1ccc2cccc(OCCNCCCCNC(=O)CC(C)(C)C)c2n1 [Compound 7]
0.75 | O=C(NCCCCNCCOc1cccc2nccnc12)c1ccccc1 [Compound 9, N-[4-({2-(5-quinoxalyloxy)ethyl}amino)butyl]benzamide]
